{"source": "paper PMC8348403", "about": "(Molecules, 2021)", "key": {"[1]": {"experiment": "Pharmacokinetic study of tamatinib in rats after oral fostamatinib (UPLC-MS/MS of plasma)", "format": "in vivo, Wistar male rats", "description": "The analysis was performed on Waters® Acquity H-Class UPLC® tandem triple quadrupole mass spectrometer (TQD) (Waters, Milford, USA). The H-Class UPLC® system contained Acquity sample manager and Acquity quaternary solvent manager. TQD was equipped with electrospray ionization (ESI) probe. Samples were detected and quantified in multiple reaction monitoring (MRM) mode. […] Mobile phase composition was 10 mM ammonium acetate and acetonitrile (10:90). The mobile phase was adjusted at 0.25 mL/min. […] Samples were vortex-mixed for 30 s, and 1 mL of MTBE was added. All samples were vortex-mixed for 1 min, then centrifuged at 8 °C for 10 min at 4500 g. After centrifugation, the upper layer was transferred to 2 mL tubes and dried using a vacuum concentrator at 40 °C. The residue was reconstituted with 100 µL of the mobile phase and a volume of 5 µL was injected into the UPLC–MS/MS. Eight Wistar male rats weighing 210 ± 20 g (aged about 2 months) were provided by National Organization for Drug Control and Research, Cairo, Egypt. Rats were placed in cages in optimum conditions of humidity (40–60%) and temperature (22–26 °C) with regular 12 h day-night cycle. No diet was available for animals for 10 h prior and 1 h post drug administration. Water was available ad libitum. Rats were administered orally (using the gavage technique) 12.5 mg/kg (the middle dose used in the work of Clemens et al.) fostamatinib as a suspension in 1% sodium carboxymethylcellulose. Under light anesthesia, blood samples (0.3 mL) were collected from orbital sinus, in heparinized tube, at different time points; 0, 0.5, 1.0, 2.0, 3.0, 4.0, 6.0, 8.0, 12.0, 24.0, and 48.0 h after drug administration. Plasma samples were obtained by centrifugation at 3000 g for 3 min and kept frozen at −80 °C until analysis. Non-compartmental analysis with the trapezoidal rule was used for estimation of pharmacokinetic parameters. These parameters were calculated using WinNonlin software (Pharsight Co., Mountain View, CA, USA)."}, "[2]": {"format": "in vitro ADME", "settings": "rat", "description": "Short-term stability was evaluated at 22–25 °C for 6 h, which represented the processing time. Autosampler stability at ambient temperature for 24 h, long-term stability (−80 °C for 6 weeks), and three cycles of thaw and freeze (−80 and 25 °C) were evaluated. The actual concentrations of QCs samples (LQC, MQC, and HQC) under the stability test condition were compared against freshly prepared samples. Moreover, stock solution and working solution stability was evaluated at refrigerator temperature (4 °C) for 2 weeks."}, "[3]": {"tested_on": "experimental nephrotoxic nephritis", "parameters": "method as in PMID 19959716", "settings": "rats; cited from earlier work"}, "[4]": {"tested_on": "collagen-induced arthritis", "parameters": "method as in PMID 17537677", "settings": "rodents; cited from earlier work"}, "[5]": {"parameters": "method as in PMID 23190017, PMID 20371637", "settings": "human intestinal microsomes; in vitro and in humans; cited from earlier work"}, "[6]": {"parameters": "method as in PMID 19107952", "settings": "administration during pregnancy; cited from earlier work"}, "[7]": {"tested_on": "lung tissue", "parameters": "method as in PMID 26148346", "settings": "treated mice; cited from earlier work"}, "[8]": {"settings": "male, Wistar, rat, plasma, po, 12.5 mg/kg"}}, "note": "Read-outs that look alike come from different tables or passages of the source.", "data": [{"smiles": "COc1cc(Nc2ncc(F)c(Nc3ccc4c(n3)NC(=O)C(C)(C)O4)n2)cc(OC)c1OC", "note": "[Tamatinib, tamatinib]", "values": [{"measurement": "AUC(0-inf)", "setting": "[1]; [8]", "result": "6420 ± 1500", "unit": "ng·h/mL"}, {"measurement": "Cmax", "setting": "[1]; [8]", "result": "653 ± 70.4", "unit": "ng/mL"}, {"measurement": "MRT", "setting": "[1]; [8]", "result": "19.8 ± 2.9", "unit": "h"}, {"measurement": "Tmax", "setting": "[1]; [8]", "result": 3, "unit": "h"}, {"measurement": "half-life", "setting": "[1]; [8]", "result": "18.3 ± 0.9", "unit": "h"}, {"measurement": "AUC(0-t)", "setting": "[1]; male, Wistar, rat, plasma, po, 12.5 mg/kg, read-out: AUC0–48", "result": "5640 ± 1210", "unit": "ng·h/mL"}, {"measurement": "Clearance", "setting": "[1]; tamatinib in plasma, oral fostamatinib 12.5 mg/kg, rats, mean ± SD", "result": "0.030 ± 0.001", "unit": "L/h"}, {"measurement": "Accuracy", "setting": "[2]; 0.3 ng/mL", "result": 90.0, "unit": "%"}, {"measurement": "Measured Concentration", "setting": "[2]; 0.3 ng/mL", "result": "0.27 ± 0.01", "unit": "ng/mL"}, {"measurement": "Accuracy", "setting": "[2]; 75 ng/mL", "result": 89.9, "unit": "%"}, {"measurement": "Measured Concentration", "setting": "[2]; 75 ng/mL", "result": "67.40 ± 2.79", "unit": "ng/mL"}, {"measurement": "Accuracy", "setting": "[2]; 750 ng/mL", "result": 86.6, "unit": "%"}, {"measurement": "Measured Concentration", "setting": "[2]; 750 ng/mL", "result": "649.20 ± 69.95", "unit": "ng/mL"}, {"measurement": "Accuracy", "setting": "[2]; 6 weeks, 0.3 ng/mL", "result": 86.7, "unit": "%"}, {"measurement": "Measured Concentration", "setting": "[2]; 6 weeks, 0.3 ng/mL", "result": "0.26 ± 0.02", "unit": "ng/mL"}, {"measurement": "Accuracy", "setting": "[2]; 6 weeks, 75 ng/mL", "result": 88.1, "unit": "%"}, {"measurement": "Measured Concentration", "setting": "[2]; 6 weeks, 75 ng/mL", "result": "66.10 ± 7.77", "unit": "ng/mL"}, {"measurement": "Accuracy", "setting": "[2]; 6 weeks, 750 ng/mL", "result": 85.4, "unit": "%"}, {"measurement": "Measured Concentration", "setting": "[2]; 6 weeks, 750 ng/mL", "result": "640.60 ± 73.94", "unit": "ng/mL"}, {"measurement": "Accuracy", "setting": "[2]; 6 h, 0.3 ng/mL", "result": 86.7, "unit": "%"}, {"measurement": "Measured Concentration", "setting": "[2]; 6 h, 0.3 ng/mL", "result": "0.26 ± 0.03", "unit": "ng/mL"}, {"measurement": "Accuracy", "setting": "[2]; 6 h, 75 ng/mL", "result": 86.2, "unit": "%"}, {"measurement": "Measured Concentration", "setting": "[2]; 6 h, 75 ng/mL", "result": "64.65 ± 3.47", "unit": "ng/mL"}, {"measurement": "Accuracy", "setting": "[2]; 6 h, 750 ng/mL", "result": 85.3, "unit": "%"}, {"measurement": "Measured Concentration", "setting": "[2]; 6 h, 750 ng/mL", "result": "640.10 ± 43.19", "unit": "ng/mL"}, {"measurement": "Accuracy", "setting": "[2]; 24 h, 0.3 ng/mL", "result": 86.7, "unit": "%"}, {"measurement": "Measured Concentration", "setting": "[2]; 24 h, 0.3 ng/mL", "result": "0.26 ± 0.02", "unit": "ng/mL"}, {"measurement": "Accuracy", "setting": "[2]; 24 h, 75 ng/mL", "result": 85.3, "unit": "%"}, {"measurement": "Measured Concentration", "setting": "[2]; 24 h, 75 ng/mL", "result": "64.00 ± 5.11", "unit": "ng/mL"}, {"measurement": "Accuracy", "setting": "[2]; 24 h, 750 ng/mL", "result": 87.2, "unit": "%"}, {"measurement": "Measured Concentration", "setting": "[2]; 24 h, 750 ng/mL", "result": "654.34 ± 97.10", "unit": "ng/mL"}, {"measurement": "effect in experimental nephrotoxic nephritis", "setting": "[3]", "result": "reduced glomerular macrophage infiltration, tissue injury, and proteinuria"}, {"measurement": "effect in collagen-induced arthritis", "setting": "[4]", "result": "progressive improvement in histopathology, clinical scores, and joint radiography"}]}, {"smiles": "COc1cc(Nc2ncc(F)c(Nc3ccc4c(n3)N(COP(=O)(O)O)C(=O)C(C)(C)O4)n2)cc(OC)c1OC", "note": "[fostamatinib, Fostamatinib sodium]", "values": [{"measurement": "transformation to tamatinib", "setting": "[5]", "result": "rapidly transformed to tamatinib"}, {"measurement": "developmental toxicity", "setting": "[6]", "result": "caused urogenital and cardiovascular abnormalities"}, {"measurement": "fibrosis and inflammation in lung tissue", "setting": "[7]", "result": "less fibrosis and inflammation in lung tissue"}]}]}
